According to patent US7276522B2, “4-(substituted cycloalkylmethyl) imidazole-2-thiones, 4-(substituted cycloalkenylmethyl) imidazole-2-thiones, 4-(substituted cycloalkylmethyl) imidazol-2-ones, 4-(substituted cycloalkenylmethyl) imidazol-2-ones and related compounds” (Allergan, Inc., priority 2002, dated 2007):

Experiments:
[1] = molecular target: T1, alpha2A adrenergic receptor (Homo sapiens, UniProt P08913); assay: Receptor Selection and Amplification Technology (RSAT) assay, alpha2A; format: cell-based; conditions: NIH-3T3 cells, agonism, read-out: EC50, Alpha 2A
T1 sequence (P08913 1-465): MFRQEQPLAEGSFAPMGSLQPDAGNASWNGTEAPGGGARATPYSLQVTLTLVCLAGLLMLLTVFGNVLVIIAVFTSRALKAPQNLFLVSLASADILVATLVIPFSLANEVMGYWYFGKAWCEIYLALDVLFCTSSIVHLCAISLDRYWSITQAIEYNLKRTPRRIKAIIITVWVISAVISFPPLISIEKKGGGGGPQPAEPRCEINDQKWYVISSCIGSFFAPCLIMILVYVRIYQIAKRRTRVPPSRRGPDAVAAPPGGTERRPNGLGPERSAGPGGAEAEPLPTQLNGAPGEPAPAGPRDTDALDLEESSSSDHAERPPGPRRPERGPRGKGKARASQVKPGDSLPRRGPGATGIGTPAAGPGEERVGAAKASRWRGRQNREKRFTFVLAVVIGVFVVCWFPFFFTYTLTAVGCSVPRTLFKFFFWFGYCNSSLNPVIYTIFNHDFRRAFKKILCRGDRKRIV
Text: (§1) The imidazole-2-thione compounds of the invention are agonists of alpha2 adrenergic receptors, particularly they tend to be specific or selective agonists of alpha2B and/or to a lesser extent alpha2C adrenergic receptors, in preference over alpha2A adrenergic receptors. […] Al., 1995, Pharmacol. Toxicol. 76, pp. 308-311 (incorporated herein by reference) and is also described below. Another reference pertinent to this assay is Conklin et al. (1993) Nature 363:274-6, also incorporated herein by reference.
(§2) Receptor Selection and Amplification Technology (RSAT) Assay
(§3) The RSAT assay measures a receptor-mediated loss of contact inhibition that results in selective proliferation of receptor-containing cells in a mixed population of confluent cells. The increase in cell number is assessed with an appropriate transfected marker gene such as β-galactosidase, the activity of which can be easily measured in a 96-well format. […]
(§4) NIH-3T3 cells are plated at a density of 2×10^6 cells in 15 cm dishes and maintained in Dulbecco's modified Eagle's medium supplemented with 10% calf serum. […] After washing with phosphate-buffered saline, β-galactosidase enzyme activity is determined by adding 200 μl of the chromogenic substrate (consisting of 3.5 mM o-nitrophenyl-β-D-galactopyranoside and 0.5% nonidet P-40 in phosphate buffered saline), incubating overnight at 30° C. and measuring optical density at 420 nm. […]

[2] = molecular target: T2, alpha2B adrenergic receptor (Homo sapiens, UniProt P18089); assay: Receptor Selection and Amplification Technology (RSAT) assay, alpha2B; format: cell-based; conditions: for EC50: RSAT, NIH-3T3 cells, agonism, read-out: EC50, Alpha 2B; for Emax: fraction of maximal effect of standard agonist brimonidine, read-out: intrinsic activity, Alpha 2B
T2 construct: expressed in transfected cells; host or cells: NIH-3T3
T2 sequence (P18089 1-450): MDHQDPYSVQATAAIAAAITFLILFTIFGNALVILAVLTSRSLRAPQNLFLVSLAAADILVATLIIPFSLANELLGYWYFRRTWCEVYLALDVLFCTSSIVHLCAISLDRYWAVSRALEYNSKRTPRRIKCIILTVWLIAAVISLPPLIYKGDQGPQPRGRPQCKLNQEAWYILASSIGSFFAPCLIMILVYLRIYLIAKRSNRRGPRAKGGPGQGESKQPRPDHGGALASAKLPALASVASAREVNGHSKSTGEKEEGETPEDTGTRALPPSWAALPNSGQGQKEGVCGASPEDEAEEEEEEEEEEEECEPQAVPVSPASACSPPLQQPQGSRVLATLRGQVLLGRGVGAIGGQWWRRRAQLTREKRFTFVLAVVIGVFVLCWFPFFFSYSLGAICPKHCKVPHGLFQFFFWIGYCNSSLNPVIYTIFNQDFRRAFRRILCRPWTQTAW
Text: as §1, §2
The RSAT assay measures a receptor-mediated loss of contact inhibition that results in selective proliferation of receptor-containing cells in a mixed population of confluent cells. The increase in cell number is assessed with an appropriate transfected marker gene such as β-galactosidase, the activity of which can be easily measured in a 96-well format. Receptors that activate the G protein, Gq, elicit this response. Alpha2 receptors, which normally couple to Gi, activate the RSAT response when coexpressed with a hybrid Gq protein that has a Gi receptor recognition domain, called Gq/i5.
NIH-3T3 cells are plated at a density of 2×10^6 cells in 15 cm dishes and maintained in Dulbecco's modified Eagle's medium supplemented with 10% calf serum. One day later, cells are cotransfected by calcium phosphate precipitation with mammalian expression plasmids encoding p-SV-β-galactosidase (5-10 μg), receptor (1-2 μg) and G protein (1-2 μg). 40 μg salmon sperm DNA may also be included in the transfection mixture. Fresh media is added on the following day and 1-2 days later, cells are harvested and frozen in 50 assay aliquots. Cells are thawed and 100 μl added to 100 μl aliquots of various concentrations of drugs in triplicate in 96-well dishes. Incubations continue 72-96 hr at 37° C. After washing with phosphate-buffered saline, β-galactosidase enzyme activity is determined by adding 200 μl of the chromogenic substrate (consisting of 3.5 mM o-nitrophenyl-β-D-galactopyranoside and 0.5% nonidet P-40 in phosphate buffered saline), incubating overnight at 30° C. and measuring optical density at 420 nm. The absorbance is a measure of enzyme activity, which depends on cell number and reflects a receptor-mediated cell proliferation. The EC50 and maximal effect of each drug at each alpha2 receptor is determined. The efficacy or intrinsic activity is calculated as a ratio of the maximal effect of the drug to the maximal effect of a standard full agonist for each receptor subtype. Brimonidine, also called UK14304, the chemical structure of which is shown below, is used as the standard agonist for the alpha2A, alpha2B and alpha2C receptors. […]

[3] = molecular target: T3, alpha2C adrenergic receptor (Homo sapiens, UniProt P18825); assay: Receptor Selection and Amplification Technology (RSAT) assay, alpha2C; format: cell-based; conditions: NIH-3T3 cells, agonism, read-out: EC50, Alpha 2C
T3 construct: expressed in transfected cells; host or cells: NIH-3T3
T3 sequence (P18825 1-462): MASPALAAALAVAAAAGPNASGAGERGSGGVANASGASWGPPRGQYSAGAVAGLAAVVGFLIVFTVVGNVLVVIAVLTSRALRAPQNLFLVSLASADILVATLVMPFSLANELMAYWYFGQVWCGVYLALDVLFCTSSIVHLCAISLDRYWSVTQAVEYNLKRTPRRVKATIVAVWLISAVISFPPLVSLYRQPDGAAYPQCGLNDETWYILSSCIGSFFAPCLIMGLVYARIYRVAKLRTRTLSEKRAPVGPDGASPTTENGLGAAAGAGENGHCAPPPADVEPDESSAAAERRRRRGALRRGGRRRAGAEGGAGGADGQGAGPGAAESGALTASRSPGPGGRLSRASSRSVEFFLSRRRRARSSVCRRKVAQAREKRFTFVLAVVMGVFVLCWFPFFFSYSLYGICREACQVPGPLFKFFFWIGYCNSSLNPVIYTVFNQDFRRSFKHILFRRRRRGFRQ
Text: as §1, §2, §3, §4

[4] = tested on: rats with surgical ligation of L5 and L6 spinal nerves (tactile allodynia); assay: Chung model of neuropathic pain (tactile allodynia, von Frey hairs); format: in vivo, rat; conditions: 30 min after dosing
Text: Alleviation of Chronic Pain
A model in accordance with Kim and Chung 1992, Pain […], pp 355-363 (Chung model), for chronic pain (in particular peripheral neuropathy) involves the surgical ligation of the L5 (and optionally the L6) spinal nerves on one side in experimental animals. Rats recovering from the surgery gain weight and display a level of general activity similar to that of normal rats. However, these rats develop abnormalities of the foot, wherein the hindpaw is moderately everted and the toes are held together. More importantly, the hindpaw on the side affected by the surgery appears to become sensitive to pain from low-threshold mechanical stimuli, such as that producing a faint sensation of touch in a human, within about 1 week following surgery. This sensitivity to normally non-painful touch is called “tactile allodynia” and lasts for at least two months. The response includes lifting the affected hindpaw to escape from the stimulus, licking the paw and holding it in the air for many seconds. None of these responses is normally seen in the control group.
Rats are anesthetized before surgery. The surgical site is shaved and prepared either with betadine or Novacaine. Incision is made from the thoracic vertebra X111 down toward the sacrum. Muscle tissue is separated from the spinal vertebra (left side) at the L4-S2 levels. The L6 vertebra is located and the transverse process is carefully removed with a small rongeur to expose the L4-L6 spinal nerves. The L5 and L6 spinal nerves are isolated and tightly ligated with 6-0 silk thread. The same procedure is done on the right side as a control, except no ligation of the spinal nerves is performed.
A complete hemostasis is confirmed, then the wounds are sutured. A small amount of antibiotic ointment is applied to the incised area, and the rat is transferred to the recovery plastic cage under a regulated heat-temperature lamp. On the day of the experiment, at least seven days after the surgery, typically six rats per test group are administered the test drugs by intraperitoneal (i.p.) injection or oral gavage. For i.p. injection, the compounds are formulated in approximately 10 to 50% DMSO and given in a volume of 1 ml/kg body weight.
Tactile allodynia is measured prior to and 30 minutes after drug administration using von Frey hairs that are a series of fine hairs with incremental differences in stiffness. Rats are placed in a plastic cage with a wire mesh bottom and allowed to acclimate for approximately 30 minutes. The von Frey hairs are applied perpendicularly through the mesh to the mid-plantar region of the rats' hindpaw with sufficient force to cause slight buckling and held for 6-8 seconds. The applied force has been calculated to range from 0.41 to 15.1 grams. If the paw is sharply withdrawn, it is considered a positive response. A normal animal will not respond to stimuli in this range, but a surgically ligated paw will be withdrawn in response to a 1-2 gram hair. The 50% paw withdrawal threshold is determined using the method of Dixon, W. J., Ann. Rev. Pharmacol. Toxicol. 20:441-462 (1980). The post-drug threshold is compared to the pre-drug threshold and the percent reversal of tactile sensitivity is calculated based on a normal threshold of 15.1 grams. The results are expressed in percent (%) MPE, where the MPE value reflects the percentage reversal of pain threshold to that of a normal animal (100%). Table 3 below indicates results of this test with Compounds 1, 7 and 29 of the invention, administered i.p. and in oral doses.

Row | SMILES | EC50 [1] [µM] | EC50 [2] [µM] | Emax [2] [%] | EC50 [3] [µM] | % Pain Reversal ± SEM ([4]; 10 μg/kg i.p.) [%] | % Pain Reversal ± SEM ([4]; 30 μg/kg i.p.) [%] | % Pain Reversal ± SEM ([4]; 100 μg/kg i.p.) [%] | % Pain Reversal ± SEM ([4]; 100 μg/kg p.o.) [%] | % Pain Reversal ± SEM ([4]; 300 μg/kg i.p.) [%] | % Pain Reversal ± SEM ([4]; 30 μg/kg p.o.) [%] | % Pain Reversal ± SEM ([4]; 300 μg/kg p.o.) [%]
1 | Cc1ccc2c(n1)CC(Cc1c[nH]c(=S)[nH]1)CC2 (racemic) [Compound 201, 4-(2-methyl-5,6,7,8-tetrahydro-quinolin-7-ylmethyl)-1,3-dihydro-imidazole-2-thione] | > 10 | 0.113 | 104 | > 10 | 0.65 ± 0.91 | 42 ± 5.7 | 75.1 ± 5.7 | 64 ± 7 | 82.5 ± 7.4 | – | –
2 | Cc1ccc2c(n1)CC(Cc1c[nH]c(=S)[nH]1)CC2 (single isomer, unassigned) [Compound 202, 4-(2-methyl-5,6,7,8-tetrahydro-quinolin-7-ylmethyl)-1,3-dihydro-imidazole-2-thione] | > 10 | 0.092 | 99 | > 10 | – | – | – | 49 ± 7.2 | – | 28 ± 8.5 | 75 ± 8.1
